Measured values taken from patent publication US5324648A, “Substituted isocoumarins as serine protease inhibitors and anti-inflammatory agents” (Georgia Tech Research Corporation, priority 1992, dated 1994).
Like-named read-outs stand apart in the source and are kept apart here.

Key:
complement protein D = complement protein D (Homo sapiens, UniProt P00746); assay: Inactivation rate of complement protein D; type: biochemical; conditions: Table II; pH 7.5, 25° C; [I] 0.05 to 1.29 mM
Procedure: (§1) Inactivation rates of serine proteases by substituted isocoumarins were measured by the incubation method. An aliquot of inhibitor (25 or 50 μl) in Me2 SO was added to a buffered enzyme solution (0.01-2.3 μM) to initiate the inactivation. Aliquots (50 μl) were withdrawn at various intervals and the residual enzymatic activity was measured. Me2 SO concentration in the reaction mixture was 8-12% (v/v). 0.1 Hepes, 0.01M CaCl2, pH 7.5 buffer was utilized for trypsin and coagulation enzymes. 0.1M Hepes, 0.5M NaCl, pH 7.5 was utilized for other serine proteases. The inhibitor concentrations are shown in all the tables. Peptide thioesters or peptide nitroanilides with appropriate sequence were used as substrates for various serine proteases. All peptide thioester hydrolysis rates were measured with assay mixtures containing 4,4'-dithiodipyridine (ε324 =19800M^-1 cm^-1; Grasetti & Murray, Arch. Biochem. Biophys. 119, pp 41-49 (1967)). Peptide 4-nitroanilide nitroanilide hydrolysis was measured at 410 nm (ε410 =8800M^-1 cm^-1; Erlanger et al., Arch. Biochem. Biophys. 95, pp 271-278 (1961)). First order inactivation rate constant (kobs) were obtained from plots of ln (vt /vo) vs time, and the correlation coefficients were greater than 0.98.
(§2) ^a Conditions were 0.1M Hepes, 0.5M NaCl, pH 7.5, 8-10% Me2 SO
(§3) and 25° C. Inactivation rates were measured by incubation method.
(§4) Enzyme concentrations were as follows: protein D, 1-9 μM; C2, 0.7-1
(§5) μM; B, 1.8 μM; Bb, 0.3-0.8 μM; Cl^- s, 0.07 μM; Cl^-

complement protein C2 = target: T1, complement protein C2 (Homo sapiens, UniProt P06681); assay: Inactivation rate of complement protein C2; type: biochemical
T1 sequence (P06681 21-752): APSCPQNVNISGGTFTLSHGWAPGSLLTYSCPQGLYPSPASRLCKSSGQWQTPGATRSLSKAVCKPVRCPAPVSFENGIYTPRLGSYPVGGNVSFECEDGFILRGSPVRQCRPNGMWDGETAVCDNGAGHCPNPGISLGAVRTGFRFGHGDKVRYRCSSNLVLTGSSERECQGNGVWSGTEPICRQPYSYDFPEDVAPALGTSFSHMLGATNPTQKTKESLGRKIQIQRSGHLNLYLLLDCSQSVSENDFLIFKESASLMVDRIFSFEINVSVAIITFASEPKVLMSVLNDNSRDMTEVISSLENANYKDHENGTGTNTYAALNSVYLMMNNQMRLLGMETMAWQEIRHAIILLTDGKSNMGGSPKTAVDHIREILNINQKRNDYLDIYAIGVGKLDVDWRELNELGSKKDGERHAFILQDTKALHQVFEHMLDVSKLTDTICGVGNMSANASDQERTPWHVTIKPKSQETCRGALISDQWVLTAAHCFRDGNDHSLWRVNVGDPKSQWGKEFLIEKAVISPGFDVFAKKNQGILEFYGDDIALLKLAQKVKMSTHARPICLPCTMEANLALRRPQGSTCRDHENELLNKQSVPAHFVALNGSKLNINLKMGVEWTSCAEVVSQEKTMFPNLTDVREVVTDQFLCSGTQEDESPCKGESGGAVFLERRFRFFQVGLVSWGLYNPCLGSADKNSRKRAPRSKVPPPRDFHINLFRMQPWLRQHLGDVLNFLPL
Procedure: as §1, §2, §3, §4, §5

complement protein B = complement protein B (Homo sapiens, UniProt P00751); assay: Inactivation rate of complement protein B; type: biochemical
Sequence of complement protein B (P00751 26-764): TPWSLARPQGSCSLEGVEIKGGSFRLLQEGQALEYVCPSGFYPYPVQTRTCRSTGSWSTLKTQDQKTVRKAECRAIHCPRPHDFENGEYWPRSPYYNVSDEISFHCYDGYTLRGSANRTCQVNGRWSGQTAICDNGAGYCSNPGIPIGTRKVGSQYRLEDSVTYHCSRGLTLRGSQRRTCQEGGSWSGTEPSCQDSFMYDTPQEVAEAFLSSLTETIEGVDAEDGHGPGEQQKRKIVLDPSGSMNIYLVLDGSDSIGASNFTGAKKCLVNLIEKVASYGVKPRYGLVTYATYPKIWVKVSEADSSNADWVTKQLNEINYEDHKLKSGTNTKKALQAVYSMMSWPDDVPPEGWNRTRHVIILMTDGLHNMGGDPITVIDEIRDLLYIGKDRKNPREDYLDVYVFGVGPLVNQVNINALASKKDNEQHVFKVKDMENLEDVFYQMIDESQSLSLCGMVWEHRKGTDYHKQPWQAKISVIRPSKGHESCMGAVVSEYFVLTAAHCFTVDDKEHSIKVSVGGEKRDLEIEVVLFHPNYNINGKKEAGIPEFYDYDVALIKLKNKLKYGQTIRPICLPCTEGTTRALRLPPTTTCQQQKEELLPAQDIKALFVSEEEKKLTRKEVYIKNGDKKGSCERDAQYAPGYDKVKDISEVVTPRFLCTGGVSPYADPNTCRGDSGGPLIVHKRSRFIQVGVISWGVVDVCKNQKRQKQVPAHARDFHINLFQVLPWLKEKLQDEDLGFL
Procedure: as §1, §2, §3, §4, §5

[1] = target: sheep lung lymph tryptase; assay: Inactivation rate of sheep lung lymph tryptase; type: biochemical; conditions: Table III; 0.1M Hepes, 0.5M NaCl, pH 7.0, 25° C
Procedure: Inactivation rates of serine proteases by substituted isocoumarins were measured by the incubation method. An aliquot of inhibitor (25 or 50 μl) in Me2 SO was added to a buffered enzyme solution (0.01-2.3 μM) to initiate the inactivation. Aliquots (50 μl) were withdrawn at various intervals and the residual enzymatic activity was measured. […] 0.1 Hepes, 0.01M CaCl2, pH 7.5 buffer was utilized for trypsin and coagulation enzymes. […] The inhibitor concentrations are shown in all the tables. Peptide thioesters or peptide nitroanilides with appropriate sequence were used as substrates for various serine proteases.
^a Inactivation rates were measured at 0.1M Hepes, 0.5M NaCl, pH 7.5
buffer, 8% Me2 SO and 25° C.

bovine thrombin = target: T2, bovine thrombin (Bos taurus, UniProt P00735); assay: Inactivation rate of bovine thrombin; type: biochemical; conditions: Table VIII; pH 7.5, 25° C; [I] 1.2-54 μM; read-out: kobs/[I]
T2 construct: bovine thrombin
Summary of the method: (§6)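 Incubation method: isocoumarin in Me2SO added to enzyme (0.01-2.3 μM) in 0.1M Hepes, 0.01M CaCl2, pH 7.5, 8-12% Me2SO, 25° C. Residual activity sampled over time with peptide thioester (4,4'-dithiodipyridine) or 4-nitroanilide (410 nm) substrates. kobs taken from ln(vt/vo) vs time.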

human factor Xa = target: T3, human factor Xa (Homo sapiens, UniProt P00742); assay: Inactivation rate of human factor Xa; type: biochemical; conditions: Table VIII; pH 7.5, 25° C; [I] 3.6-44 μM; read-out: kobs/[I]
T3 construct: human factor Xa
T3 sequence (P00742 235-488 limits assumed): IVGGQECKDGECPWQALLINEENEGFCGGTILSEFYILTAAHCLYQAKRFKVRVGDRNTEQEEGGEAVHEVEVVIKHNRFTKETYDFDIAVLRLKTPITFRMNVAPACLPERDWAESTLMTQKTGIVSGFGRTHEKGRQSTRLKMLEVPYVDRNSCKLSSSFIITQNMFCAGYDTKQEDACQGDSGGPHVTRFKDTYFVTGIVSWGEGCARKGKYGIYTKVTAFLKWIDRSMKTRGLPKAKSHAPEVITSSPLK
T3 sequence (P00742 41-179 partner limits assumed): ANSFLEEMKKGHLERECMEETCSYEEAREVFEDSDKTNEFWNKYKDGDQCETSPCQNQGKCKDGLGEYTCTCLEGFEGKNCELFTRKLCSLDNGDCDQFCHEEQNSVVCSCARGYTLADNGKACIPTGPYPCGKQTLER
Summary of the method: as §6

human factor XIIa = target: T4, human factor XIIa (Homo sapiens, UniProt P00748); assay: Inactivation rate of human factor XIIa; type: biochemical; conditions: Table VIII; pH 7.5, 25° C; [I] 3.6-4.9 μM; read-out: kobs/[I]
T4 construct: human factor XIIa
T4 sequence (P00748 373-615 limits assumed): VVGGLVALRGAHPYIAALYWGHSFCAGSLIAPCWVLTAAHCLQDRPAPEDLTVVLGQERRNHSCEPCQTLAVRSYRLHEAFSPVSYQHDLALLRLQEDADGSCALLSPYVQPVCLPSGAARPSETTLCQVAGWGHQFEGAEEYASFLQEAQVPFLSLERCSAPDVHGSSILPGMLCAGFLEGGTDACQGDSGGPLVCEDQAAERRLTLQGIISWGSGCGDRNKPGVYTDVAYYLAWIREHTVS
T4 sequence (P00748 20-372 partner limits assumed): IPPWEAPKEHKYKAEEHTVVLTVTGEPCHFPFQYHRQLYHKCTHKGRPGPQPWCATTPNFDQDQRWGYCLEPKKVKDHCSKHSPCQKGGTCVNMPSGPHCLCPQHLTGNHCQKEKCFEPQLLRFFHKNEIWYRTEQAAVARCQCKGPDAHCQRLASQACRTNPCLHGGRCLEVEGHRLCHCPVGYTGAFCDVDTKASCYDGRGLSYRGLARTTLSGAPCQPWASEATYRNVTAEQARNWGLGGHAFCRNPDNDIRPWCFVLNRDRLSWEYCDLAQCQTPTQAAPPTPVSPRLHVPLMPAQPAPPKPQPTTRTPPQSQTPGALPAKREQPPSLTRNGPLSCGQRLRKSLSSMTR
Procedure: as §1
^a Conditions were as 0.1M Hepes, 0.01M CaCl2, pH 7.5 and 8-12%
Me2 SO and 25° C. Rate constants were measured by incubation
method unless otherwise noted. An aliquot of inhibitor was added to an
enzyme solution and aliquots removed with time and assayed for remaining
enzymatic activity. Firstorder rate constants, kobs were obtained
from the plots of ln(vt /vo) versus time.
(§7) ^a Inhibition rates were measured in 0.1M Hepes, 0.01M CaCl2, pH
7.5 buffer, 8% Me2 SO and at 25° C.

human thrombin = target: T5, human thrombin (Homo sapiens, UniProt P00734); assay: Inactivation rate of human thrombin; type: biochemical; conditions: Table VIII; pH 7.5, 25° C; [I] 1.2-54 μM; read-out: kobs/[I]
T5 construct: human thrombin
Summary of the method: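 Incubation method: enzyme (0.01-2.3 μM) mixed with inhibitor in 0.1M Hepes, 0.01M CaCl2, pH 7.5, 8% Me2SO, 25° C; residual activity sampled over time with peptide thioester or 4-nitroanilide substrates. kobs from ln(vt/vo) vs time plots.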

human lung tryptase = assay: Inactivation rate of human lung tryptase; type: biochemical; conditions: Table IX; pH 7.5, 25° C; [I] 0.42-0.47 μM
Summary of the method: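 Incubation method in 0.1M Hepes, 0.5M NaCl, pH 7.5, 8% Me2SO, 25° C; inhibitor added to enzyme, aliquots withdrawn over time for residual activity. Substrate ZArg-SBzl (0.07 mM) with 4,4'-dithiodipyridine (0.33 mM). kobs from ln(vt/vo) vs time plots.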

rat skin tryptase = target: T6, rat skin tryptase (Rattus norvegicus, UniProt P27435); assay: Inactivation rate of rat skin tryptase; type: biochemical; conditions: pH 7.5, Table IX; pH 7.5, 25° C; [I] 0.42-0.51 μM; read-out: kobs/[I]
T6 construct: from tissue; host or cells: rat skin
T6 sequence (P27435 29-273): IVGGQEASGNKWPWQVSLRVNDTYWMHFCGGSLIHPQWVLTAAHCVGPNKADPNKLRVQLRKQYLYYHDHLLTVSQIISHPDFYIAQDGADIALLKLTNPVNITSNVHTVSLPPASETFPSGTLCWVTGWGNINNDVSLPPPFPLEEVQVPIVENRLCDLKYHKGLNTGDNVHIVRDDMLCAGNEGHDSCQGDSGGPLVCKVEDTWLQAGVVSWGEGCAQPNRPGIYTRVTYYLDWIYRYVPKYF
Summary of the method: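 Rat skin tryptase incubated with isocoumarin inhibitor in 25 mM phosphate, 0.5 M NaCl, 1 mM EDTA, pH 7.5, 8-9% Me2SO, 25 °C; aliquots withdrawn over time for residual activity on ZArg-SBzl (0.07 mM) with 4,4'-dithiodipyridine (0.33 mM). First-order kobs from ln(vt/vo) versus time.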

[2] = target: recombinant human tissue plasminogen activator (Homo sapiens, UniProt P00750); assay: Inactivation rate of recombinant human tissue plasminogen activator; type: biochemical; conditions: pH 7.5, Table IX; pH 7.5, 25° C; [I] 3.5-5.0 μM; read-out: kobs/[I]
Sequence of recombinant human tissue plasminogen activator (P00750 36-562): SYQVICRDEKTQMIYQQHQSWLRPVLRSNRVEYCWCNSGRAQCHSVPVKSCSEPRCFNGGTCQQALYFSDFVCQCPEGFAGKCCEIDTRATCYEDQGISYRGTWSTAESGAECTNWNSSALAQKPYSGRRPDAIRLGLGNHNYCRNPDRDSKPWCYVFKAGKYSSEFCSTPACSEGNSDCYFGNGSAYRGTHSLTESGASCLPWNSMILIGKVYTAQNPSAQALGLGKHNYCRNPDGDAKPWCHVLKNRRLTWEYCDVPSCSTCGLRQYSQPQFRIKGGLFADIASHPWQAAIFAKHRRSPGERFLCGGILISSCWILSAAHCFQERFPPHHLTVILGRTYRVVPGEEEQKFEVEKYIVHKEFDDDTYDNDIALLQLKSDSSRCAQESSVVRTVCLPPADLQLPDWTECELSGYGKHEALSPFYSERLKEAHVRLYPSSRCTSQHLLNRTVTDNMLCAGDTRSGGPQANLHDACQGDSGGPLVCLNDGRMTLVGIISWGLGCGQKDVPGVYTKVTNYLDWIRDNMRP
Summary of the method: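 Incubation method: enzyme mixed with inhibitor in Me2SO (8–12% v/v) in 0.1M Hepes, 0.5M NaCl, pH 7.5; aliquots withdrawn over time for residual activity with ZArg-SBzl (0.07 mM) plus 4,4'-dithiodipyridine (0.33 mM). kobs taken from ln(vt/vo) versus time plots.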

human skin tryptase = assay: Inhibition of human skin tryptase; type: biochemical; conditions: Table IX; pH 7.5, 25° C; [I] 0.34-0.39 μM
Procedure: as §1, §7
7.5 buffer for human plasmin; 25 mM Phosphate, 0.5M NaCl, 1 mM EDTA, pH
7.5 buffer for rat skin tryptase and 0.1M Hepes, 0.5M NaCl, pH 7.5 for
human lung tryptase, human skin tryptase and rt-PA. All enzymes were
assayed with ZArg-SBzl (0.07 mM) in the presence of 4,4dithiodipyridine
(0.33 mM). Reaction mixtures contained 8% Me2 SO and assays were […]

[3] = target: T7, porcine pancreatic elastase (PPE) (Sus scrofa, UniProt P00772); assay: Inactivation of porcine pancreatic elastase (PPE); type: biochemical; conditions: Table X; after 20 min incubation
T7 construct: from tissue; host or cells: porcine pancreas (from the name)
T7 sequence (P00772 27-266): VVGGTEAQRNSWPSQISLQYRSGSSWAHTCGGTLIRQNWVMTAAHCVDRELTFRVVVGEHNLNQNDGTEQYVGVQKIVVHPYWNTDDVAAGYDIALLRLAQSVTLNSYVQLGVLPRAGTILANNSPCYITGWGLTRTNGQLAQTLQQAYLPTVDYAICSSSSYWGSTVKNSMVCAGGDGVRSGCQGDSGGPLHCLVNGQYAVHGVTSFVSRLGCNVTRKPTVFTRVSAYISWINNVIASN

[4] = target: T8, human leukocyte elastase (HLE) (Homo sapiens, UniProt P08246); assay: Inactivation of human leukocyte elastase (HLE); type: biochemical; conditions: pH 7.5, Table X, biphasic inhibition
T8 construct: from tissue; host or cells: human leukocytes (from the name)
T8 sequence (P08246 30-267): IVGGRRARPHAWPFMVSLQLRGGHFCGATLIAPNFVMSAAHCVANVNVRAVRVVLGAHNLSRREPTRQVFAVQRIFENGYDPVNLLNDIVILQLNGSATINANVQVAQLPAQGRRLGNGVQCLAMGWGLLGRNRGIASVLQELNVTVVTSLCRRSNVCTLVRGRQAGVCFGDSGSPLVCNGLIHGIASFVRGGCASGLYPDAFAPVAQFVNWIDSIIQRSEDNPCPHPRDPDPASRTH

chymotrypsin = chymotrypsin (Bos taurus, UniProt P00766); assay: Inactivation of chymotrypsin; type: biochemical, bovine; conditions: Table X; pH 7.5, 25° C; [I] 0.9-43 μM; read-out: kobs/[I]
cathepsin G = target: T9, cathepsin G (Homo sapiens, UniProt P08311); assay: Inactivation of cathepsin G; type: biochemical; conditions: Table X; pH 7.5, 25° C; [I] 33-46 μM; read-out: kobs/[I]
T9 construct: from tissue; host or cells: human leukocytes
T9 sequence (P08311 21-255): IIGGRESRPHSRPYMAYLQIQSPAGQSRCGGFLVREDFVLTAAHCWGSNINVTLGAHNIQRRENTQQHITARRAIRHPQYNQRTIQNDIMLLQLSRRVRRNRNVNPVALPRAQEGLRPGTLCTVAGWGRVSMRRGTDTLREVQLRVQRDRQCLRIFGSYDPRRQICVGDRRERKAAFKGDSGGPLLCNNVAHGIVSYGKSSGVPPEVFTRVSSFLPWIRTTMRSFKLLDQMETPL

human plasmin = target: T10, human plasmin (Homo sapiens, UniProt P00747); assay: Inactivation rate of human plasmin; type: biochemical; conditions: Table IX; 0.01M CaCl2, pH 7.5, 25° C; [I] 8.3-41 μM; read-out: kobs/[I]
T10 construct: human plasmin; from tissue; host or cells: human plasma
T10 sequence (P00747 581-810 limits assumed): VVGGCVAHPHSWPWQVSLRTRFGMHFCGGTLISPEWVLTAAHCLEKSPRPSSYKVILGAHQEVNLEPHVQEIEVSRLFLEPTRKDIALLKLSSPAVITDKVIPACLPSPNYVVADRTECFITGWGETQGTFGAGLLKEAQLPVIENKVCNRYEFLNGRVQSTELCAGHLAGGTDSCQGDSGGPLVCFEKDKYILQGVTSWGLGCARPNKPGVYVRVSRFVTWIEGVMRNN
T10 sequence (P00747 97-580 partner limits assumed): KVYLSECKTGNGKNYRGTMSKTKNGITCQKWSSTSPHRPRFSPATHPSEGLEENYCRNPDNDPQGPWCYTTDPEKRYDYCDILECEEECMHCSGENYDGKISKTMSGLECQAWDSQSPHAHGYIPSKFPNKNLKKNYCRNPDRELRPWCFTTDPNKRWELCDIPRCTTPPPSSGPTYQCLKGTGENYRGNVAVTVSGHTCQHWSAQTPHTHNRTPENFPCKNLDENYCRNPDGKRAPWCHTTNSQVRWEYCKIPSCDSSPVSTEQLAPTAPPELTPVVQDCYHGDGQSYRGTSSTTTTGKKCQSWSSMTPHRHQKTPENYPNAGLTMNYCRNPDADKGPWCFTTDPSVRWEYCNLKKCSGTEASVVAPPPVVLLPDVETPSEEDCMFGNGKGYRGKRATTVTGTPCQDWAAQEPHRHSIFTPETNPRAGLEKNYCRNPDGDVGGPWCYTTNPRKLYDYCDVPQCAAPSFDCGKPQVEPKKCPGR

pig plasma [5] = assay: Prothrombin time (PT), pig plasma; conditions: [I] 32 μM
pig plasma [6] = assay: Activated partial thromboplastin time (APTT), pig plasma; conditions: [I] 32 μM

Sequence of complement protein D (P00746 26-253): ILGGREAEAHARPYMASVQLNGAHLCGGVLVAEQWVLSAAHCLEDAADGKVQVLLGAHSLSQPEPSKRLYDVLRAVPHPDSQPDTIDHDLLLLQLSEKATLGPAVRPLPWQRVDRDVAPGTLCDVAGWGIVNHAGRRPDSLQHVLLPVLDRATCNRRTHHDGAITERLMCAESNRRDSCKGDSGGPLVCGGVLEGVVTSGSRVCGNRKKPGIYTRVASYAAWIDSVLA

SMILES	kobs/[I] (complement protein D) [M⁻¹ s⁻¹]	inhibition of C2 (in words) (complement protein C2)	inhibition of protein B (in words) (complement protein B)	kobs/[I] [1] [M⁻¹ s⁻¹]	kinact/KI (bovine thrombin) [M⁻¹ s⁻¹]	kinact/KI (human factor Xa) [M⁻¹ s⁻¹]	kinact/KI (human factor XIIa) [M⁻¹ s⁻¹]	kinact/KI (human thrombin) [M⁻¹ s⁻¹]	kobs/[I] (human lung tryptase)	kinact/KI (rat skin tryptase) [M⁻¹ s⁻¹]	kinact/KI [2] [M⁻¹ s⁻¹]	kobs/[I] (human skin tryptase)	percentage of inhibition [3] [%]	kinact/KI ([4]; read-out: kobs/[I] (biphasic, first value)) [M⁻¹ s⁻¹]	kinact/KI ([4]; read-out: kobs/[I] (biphasic, second value)) [M⁻¹ s⁻¹]	kinact/KI (chymotrypsin) [M⁻¹ s⁻¹]	kinact/KI (cathepsin G) [M⁻¹ s⁻¹]	kinact/KI (human plasmin) [M⁻¹ s⁻¹]	PT (pig plasma [5]) [s]	APTT (pig plasma [6]) [s]
N=C(N)c1ccc(CS(=O)(=O)F)cc1 [APMSF, 4-amidinophenylmethane sulfonyl fluoride, reference compound]	110	do not show any inhibition	do not show any inhibition	230	–	–	–	–	–	–	–	–	–	–	–	–	–	–	–	–
N=C(N)SCCOc1oc(=O)c2cc(NC(=O)[C@H](N)Cc3ccccc3)ccc2c1Cl [D-Phe--NH-CiTEtOIC, 7-(D-phenylalanylamino)-4-chloro-3-(2-isothiureidoethoxy)isocoumarin]	–	–	–	–	4240	3070	82000	3070	60,000 M^-1 s^-1	360000	15000	62,000 M^-1 s^-1	–	–	–	–	–	–	–	–
C[C@H](NC(=O)Nc1ccc2c(Cl)c(OCCSC(=N)N)oc(=O)c2c1)c1ccccc1 [S-C6 H5 (CH3)CHNHCONH-CiTEtOIC, 7-((S)-α-methylbenzylcarbamoylamino)-4-chloro-3-(2-isothiureidoethoxy)isocoumarin]	–	–	–	–	41300	–	–	21000	–	–	–	–	21	5100	360	260	35	27800	30.0	> 120
